Data on one compound can be found in patent publication US9884031B2, “Use of HDAC inhibitors for treatment of cardiac rhythm disorders” (THE TRUSTEES OF THE UNIVERSITY OF PENNSYLVANIA, priority 2007, dated 2018).

Entries after “also recorded” stand apart in the source; their conditions may differ. Marks after values point to notes of the source that are not given here.

The test system of test [1] is Hop transgenic mice (Hop^Tg). Nature of the test: In-vivo electrophysiology study: inducible arrhythmias by programmed electrical stimulation. More on the design: species or system mouse. Here is the method: An in-vivo electrophysiology study was performed in each mouse to assess atrial and ventricular conduction, refractoriness, and arrhythmia inducibility. Surface ECG recordings and complete in vivo electrophysiological studies (EPS) were obtained from Hop^Tg mice (14-18 weeks old), age-matched non-transgenic littermates and TSA-treated Hop^Tg mice. Each mouse was anesthetized with pentobarbital ([…] IP), and multi-lead ECGs were obtained using 26-gauge subcutaneous electrodes. Temperature was maintained at 32-33° C. A jugular vein cutdown was performed and an octapolar 2-French electrode catheter (CIBer mouse-EP; NuMED, Inc) placed in the right atrium and ventricle under electrogram guidance to confirm catheter position. A programmed digital stimulator (DTU-215A, Bloom Associates Ltd) was used to deliver electrical impulses at approximately twice diastolic threshold. […] ECG channels were filtered from 0.5 to 250 Hz and intracardiac electrograms were filtered from 5 to 400 Hz. ECG intervals were measured by two independent observers blinded to the animal's genotype.
The PR, QRS, RR, and QT intervals were measured in 6 surface-limb ECG leads by 2 independent observers, who were both blinded to the animals' genotype. Intracardiac recordings were obtained during identical pacing and programmed electrical stimulation protocols for all mice by experienced investigators.
Trichostatin A 0.6 mg/kg daily in a volume of 0.2 mL was given by intraperitoneal injection for 14 consecutive days prior to cardiac electrical stimulation in Hop transgenic mice (Hop^Tg) compared with wild-type controls (WT).
Ventricular programmed electrical stimulation induced similar numbers and durations of ventricular tachycardia in 3 of 11 Hop^Tg mice compared to 4 of 12 control mice (P=NS).

In test [2] the test system is Hop transgenic mice (HopX^Tg). Nature of the test: Morphometric analysis of hearts (heart weight, atrial weight ratios). In kind it is in vivo, mouse. The note with it: for Heart weight to tibia length ratio (HW/TL), in words: TSA-Hop^Tg vs Hop^Tg mice. Here is the method:
(§1) Trichostatin A 0.6 mg/kg daily in a volume of 0.2 mL was given by intraperitoneal injection for 14 consecutive days upon inducible atrial arrhythmias and atrial structurally remodeling in an engineered mouse model with left ventricular hypertrophy and inducible atrial fibrillation. Transgenic mice over-expressing the homeodomain-only protein (Hop^Tg), which promotes cardiac hypertrophy and interstitial fibrosis, were divided into three groups: control, Hop^Tg mice and Hop^Tg mice treated with trichostatin A.
Hop^Tg mice had higher left ventricular end-diastolic pressure (LVEDP), and reduced peak systolic contraction and diastolic relaxation compared to WT mice. However, trichostatin A had no effect upon the LVEDP, systolic contraction or diastolic relaxation when treatment was initiated in animals aged 12-14 weeks of age. These parameters were similar between Hop^Tg and TSA-Hop^Tg mice, though still abnormal when compared to WT mice. In addition, the heart weight to tibia length ratio (HW/TL) was higher in Hop^Tg and TSA-Hop^Tg mice compared to WT, but there was no difference in the HW/TL between Hop^Tg and TSA-Hop^Tg mice. *P<0.05 compared to WT; ^†P<0.05 compared to TSA-Hop^Tg.

Test [3] concerns Hop transgenic mice (Hop^Tg). Nature of the test: Masson's trichrome staining for collagen as marker of fibrosis. In kind it is in vivo, mouse. The note with it: FIG. 1; for Atrial fibrosis (in words): TSA-treated Hop transgenic mice vs untreated. The procedure:
Hearts were excised from, washed in 37° C. Dulbecco's 1×PBS, arrested in 50 mmol/L KCl, and fixed in 4% formalin. Fixed hearts were cut transversely and sectioned serially from ventricular apex to base. Two sections (5 μm each) were retained at the beginning of each 50-μm step. Sections were stained with Masson's trichrome stain for collagen as a marker of fibrosis. Quantification of the proportion of fibrosis in each heart was then performed with scientific imaging software (Image-J, National Institutes of Health)) and high-resolution serial scanning technique. Histological sections from the entire left ventricle and both atrium were used for analysis from three different hearts.
as §1

For test [4], the system named is activated TGF-β1. Nature of the test: Western blot of atrium: activated TGF-β1. In kind it is in vivo, mouse. The note with it: TSA-Hop^Tg mice relative to Hop^Tg, FIG. 2E. The procedure:
(§2) Adult mouse atrium and ventricle were dissected and homogenized in buffer containing 1% Igepal surfactant, 0.5% deoxycholate sodium, 2% SDS, 5 mmol EDTA (pH=7.4), 1% protease inhibitor cocktail tablet (Roche) with and without phosphatase inhibitor cocktail (Sigma-Aldrich). Samples were cleared of debris by centrifugation at 5000 g for 10 min. and the protein concentration was determined using a BCA protein assay kit (Pierce). Protein samples were run on a 4-12% gradient pre-cast SDS-PAGE gel (Invitrogen), and after electrophoresis were transferred onto PVDF membranes (Millipore) using 0.1% acetic acid/10% methanol as a transfer buffer. Membranes were incubated with primary antibodies in 5% milk and PBS overnight at 4° C. and then washed for 5 min, 4 times with TBS-T solution. […] Results were visualized by enhanced chemiluminescence using a commercially available kit (Western Breeze, Invitrogen) and data were recorded on BioMax-MR film (Kodak, Rochester, N.Y.). Densitometry was determined using the Image-J software package (National Institutes of Health). […]
Background: In western blotting, separated proteins are transferred to a membrane and probed.

The test system of test [5] is connexin40. Nature of the test: Immunoblot analysis of atrial connexin40. In kind it is in vivo, mouse. To be noted: TSA-treated Hop transgenic mice, FIG. 3A. Here is the method:
as §2

For test [6], the system named is connexin43. Nature of the test: Immunoblot analysis of atrial connexin43. In kind it is in vivo, mouse. To be noted: WT, Hop and TSA-Hop mice, FIG. 3B. Here is the method:
as §2

Test [7] concerns 3 week-old HopX^Tg mice. The note with it: cited from earlier work.
Setting [8] is: TSA 0.6 mg/kg daily IP 14 days, Hop^Tg mice.
Where [9] appears, read: TSA 0.6 mg/kg daily IP 14 days, Hop^Tg mice, n = 10.
Setting [10] is: TSA 0.6 mg/kg daily IP 14 days, Hop^Tg mice, n = 10, mean±SD.
[11] abbreviates: TSA 0.6 mg/kg daily IP 14 days, HopX^Tg mice, n = 13, mean±SD.

As for `CC(/C=C/C(=O)NO)=C\[C@@H](C)C(=O)c1ccc(N(C)C)cc1` [TSA, Trichostatin A], in test [1] (setting [8]), the “Mice with AT” value is 2/15 and the “Mice with VT” value is on record as 2/15. Moreover, in test [1] (setting [9]), the “Episodes AT (atrial tachycardia)” value turned out to be 5 and the “Episodes VT (ventricular tachycardia)” value was 4. For the same compound, in test [1] (setting [10]), the “AT CL (atrial tachycardia cycle length)” value is on record as 47.0 ± 7.2 ms, the “Duration AT” value amounted to 0.148 ± 0.110 s, the “Duration VT” value was 0.89 ± 1.07 s and the “VT CL (ventricular tachycardia cycle length)” value came out at 50.4 ± 8.6 ms. Further, the “Mice in which atrial programmed electrical stimulation induced atrial arrhythmia” value in test [1] (TSA-Hop^Tg mice vs 9 of 11 Hop^Tg mice, P<0.01) is recorded as 2 of 10. Also, the “Mice in which ventricular programmed electrical stimulation induced ventricular tachycardia” value in test [1] (TSA-Hop^Tg mice vs Hop^Tg mice, P<0.05) is given as 2 of 10. Moreover, in test [1] (TSA-treated Hop transgenic mice vs untreated), the “Atrial arrhythmia inducibility (in words)” value is given as “complete reversal of atrial arrhythmia inducibility”. In test [1] (TSA-treated Hop^Tg mice vs untreated), the “Duration and episodes of atrial fibrillation (in words)” value is on record as “reduced”. For the same compound, in test [2] (setting [11]), the Heart weight is listed as 192.8 ± 15.5* mg and the Heart weight/body weight is reported as 7.4 ± 0.67* mg/g. Further, the “Heart weight to tibia length ratio (HW/TL), in words” value in test [2] (14-18 week-old) is reported as “no significant changes; also recorded: no change”. The “Heart weight to tibia length ratio (HW/TL), in words” value in test [2] (14-18 week-old, listed as trichostatin A) was “no difference”. For the same compound, the “Atrial weight/tibial length ratio (AW/TL), in words” value in test [2] (TSA-treated HopX^Tg vs HopX^Tg mice, 14-18 week-old) is “no significant changes; also recorded: no change”. In addition, in test [3] (listed as Trichostatin A), the “Atrial fibrosis (in words)” value is reported as “reduced”. For the same compound, in test [3] (listed as trichostatin A), the “Atrial fibrosis (in words)” value is given as “complete reversal of atrial fibrosis”. Besides, the “Ventricular interstitial fibrosis (in words)” value in test [3] (three groups incl. TSA-Hop) is given as “no obvious ventricular interstitial fibrosis”. In addition, the “Activated TGF-β1 protein expression in atrium” value in test [4] is “further decreased”. Further, in test [5], the “Atrial connexin40 expression” value is reported as “normalized”. The “Atrial connexin43 expression” value in test [6] is reported as “no changes”. Further, the “Cardiac hypertrophy, in words” value in test [7] was “partially reduces”.
